Among the data in patent US20260042755A1, “GPR6 INVERSE AGONISTS” (MapLight Therapeutics, Inc., priority 2022, published 2026) are IC50 values, retold here.

Assay [1] deals with T1, GPR6 (Homo sapiens, UniProt P46095).
T1 construct: expressed in transfected cells; host or cells: CHO cells
In words: GPR6 antagonist functional cAMP assay (LANCE Ultra cAMP TR-FRET, CHO cells stably expressing GPR6). In kind it is cell-based. Put shortly:
(§1)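 Read-out was TR-FRET cAMP signal at 665 nm after 1 h at room temperature, following 45 min compound exposure at 37 °C. Assay buffer contained 0.1% BSA and 150 μM Ro 20-1724. Antagonist IC50s were fitted with a 4-parameter logistic against DMSO and reference controls.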

Assay [2] deals with T2, GPR3 (Homo sapiens, UniProt P46089).
T2 construct: expressed in transfected cells; host or cells: CHO cells
In words: GPR3 antagonist functional cAMP assay (LANCE Ultra cAMP TR-FRET, CHO cells stably expressing GPR3). It counts as cell-based. Put shortly: as §1
(Cyclic AMP is a second messenger, typically raised through Gs and lowered through Gi signalling.)

The mark [3] stands for this setting: CHO cells stably expressing GPR6, cAMP assay.
Where [4] appears, read: CHO cells stably expressing GPR3, cAMP assay.
The mark [5] stands for this setting: procedure as described in Example 24.
The mark [6] stands for this setting: CHO cells stably expressing GPR6, cAMP assay (Example 24).
The mark [7] stands for this setting: CHO cells stably expressing GPR3, cAMP assay (Example 24).

Each structure is given as a SMILES string.

T1 sequence (P46095 whole entry): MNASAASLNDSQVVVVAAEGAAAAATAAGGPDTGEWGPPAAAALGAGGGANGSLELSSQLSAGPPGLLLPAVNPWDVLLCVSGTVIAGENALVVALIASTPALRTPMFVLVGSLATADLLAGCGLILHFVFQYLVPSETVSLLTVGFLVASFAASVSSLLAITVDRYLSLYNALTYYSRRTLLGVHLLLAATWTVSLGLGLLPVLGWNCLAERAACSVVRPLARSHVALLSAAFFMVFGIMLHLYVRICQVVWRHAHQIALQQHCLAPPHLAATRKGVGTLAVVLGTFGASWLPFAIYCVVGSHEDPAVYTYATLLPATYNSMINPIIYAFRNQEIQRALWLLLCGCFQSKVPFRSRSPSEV
T2 sequence (P46089 whole entry, species assumed): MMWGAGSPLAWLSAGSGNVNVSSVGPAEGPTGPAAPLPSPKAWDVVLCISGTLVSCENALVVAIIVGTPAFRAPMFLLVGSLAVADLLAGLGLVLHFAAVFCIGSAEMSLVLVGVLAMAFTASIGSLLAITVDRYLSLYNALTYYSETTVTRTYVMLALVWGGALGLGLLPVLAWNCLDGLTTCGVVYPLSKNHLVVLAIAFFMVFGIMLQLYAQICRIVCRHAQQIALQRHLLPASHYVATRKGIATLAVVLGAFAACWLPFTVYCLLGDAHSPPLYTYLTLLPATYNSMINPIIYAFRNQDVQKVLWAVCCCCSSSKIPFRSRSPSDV

As for `CC(=O)N1CCc2nc(N3CCN(Cc4cc(F)ccc4Cl)CC3)c(-c3cnn(C)c3)nc2C1` [Compound 506, 1-(2-{4-[(2-chloro-5-fluorophenyl)methyl]-1-piperazinyl}-3-(1-methyl-4-pyrazolyl)-5,6,7,8-tetrahydro-1,4,6-triaza-6-naphthyl)-1-ethanone], the IC50 (commonly the midpoint of a concentration-inhibition curve) in assay [1] (setting [3]) was 100 to 1000 nM; in assay [2] (setting [4]), 1000 to 30000 nM.

Take `CC(C)(O)C(=O)c1cc2nc(N3CCC(Oc4ccc(F)cc4F)CC3)c(-c3cnn(C4CC4)c3)nc2cn1` [Compound 625, 1-{3-(1-cyclopropyl-4-pyrazolyl)-2-[4-(2,4-difluorophenoxy)-1-piperidyl]-1,4,6-triaza-7-naphthyl}-2-hydroxy-2-methyl-1-propanone]: the figures for the half-inhibitory concentration (IC50) in assay [1] (procedure of Example 24) and in assay [2] (procedure of Example 24) were 100 to 1000 nM and 1000 to 30000 nM, respectively.

In the case of `COc1cncc(-c2nc3c(nc2N2CCC(Oc4ccc(F)cc4F)CC2)CCN(C(C)=O)C3)c1` [Compound 38, 1-{2-[4-(2,4-difluorophenoxy)piperidin-1-yl]-3-(5-methoxypyridin-3-yl)-5H,6H,7H,8H-pyrido[3,4-b]pyrazin-6-yl}ethan-1-one], the IC50 in assay [1] (setting [5]) lay in the range of 100 to 1000 nM; in assay [2] (setting [5]), 1000 to 30000 nM.

For the molecule `CC(C)(O)C(=O)c1cc2nc(N3CCN(Cc4ccccc4F)CC3)c(-c3cnn(C(F)F)c3)nc2cn1` [Compound 618, 1-{3-[1-(difluoromethyl)-4-pyrazolyl]-2-{4-[(o-fluorophenyl)methyl]-1-piperazinyl}-1,4,6-triaza-7-naphthyl}-2-hydroxy-2-methyl-1-propanone], the values for the IC50 in assay [1] (procedure of Example 24) and in assay [2] (procedure of Example 24) were 100 to 1000 nM and 1000 to 30000 nM, respectively.

`COC[C@H]1CN(Cc2ccc(F)cc2F)CCN1c1nc2c(nc1-c1cnn(C)c1)CN(C(C)=O)CC2` (single isomer, unassigned) [Compound 249]: the 50% inhibitory concentration (IC50) in assay [1] (setting [6]) and in assay [2] (setting [7]) was 1000 to 30000 nM in each case.

For the molecule `CC(=O)N1CCc2nc(N3CCN(Cc4cnn(C)c4)CC3)c(-c3cnn(C)c3)nc2C1` [Compound 526, 1-[3-(1-methyl-4-pyrazolyl)-2-{4-[(1-methyl-4-pyrazolyl)methyl]-1-piperazinyl}-5,6,7,8-tetrahydro-1,4,6-triaza-6-naphthyl]-1-ethanone], the IC50 in assay [1] (setting [3]) is at least 30000 nM; in assay [2] (setting [4]), 100 to 1000 nM.

For the molecule `CC(C)(O)C(O)c1cc2nc(-c3cnn(CF)c3)c(N3CCN(Cc4cc(F)ccc4F)CC3)nc2cn1` (single isomer, unassigned) [Compound 723], the IC50 in assay [1] (procedure of Example 24) fell in the range of 100 to 1000 nM; in assay [2] (procedure of Example 24), 1000 to 30000 nM.

`CCn1cc(-c2nc3cnc(C(C)(O)C(C)(C)O)cc3nc2N2CCN(Cc3ccc(F)cc3F)CC2)cn1` (stereo not shown) [Compound 654, 2-(2-{4-[(2,4-difluorophenyl)methyl]-1-piperazinyl}-3-(1-ethyl-4-pyrazolyl)-1,4,6-triaza-7-naphthyl)-3-methyl-2,3-butanediol]: the figures for the 50% inhibitory concentration (IC50) in assay [1] (procedure of Example 24) and in assay [2] (procedure of Example 24) were 100 to 1000 nM and 1000 to 30000 nM, respectively.

For `CCn1cc(-c2nc3c(nc2N2CCC(Oc4ccc(F)cc4F)CC2)CCN(C(C)=O)C3)cn1` [Compound 220, 1-{2-[4-(2,4-difluorophenoxy)piperidin-1-yl]-3-(1-ethyl-1H-pyrazol-4-yl)-5H,6H,7H,8H-pyrido[3,4-b]pyrazin-6-yl}ethan-1-one], the concentration for half-maximal inhibition (IC50) was below 100 nM in assay [1] (setting [6]) and 1000 to 30000 nM in assay [2] (setting [7]).

Consider `CC(=O)N1CCc2nc(N3CCN(Cc4ccc[nH]c4=O)CC3)c(-c3cnn(C)c3)nc2C1` [Compound 531, 3-({4-[6-acetyl-3-(1-methyl-4-pyrazolyl)-5,6,7,8-tetrahydro-1,4,6-triaza-2-naphthyl]-1-piperazinyl}methyl)-2(1H)-pyridinone], for which the 50% inhibitory concentration (IC50) in assay [1] (setting [3]) and in assay [2] (setting [4]) was at least 30000 nM throughout.

With `COc1cccc(CN2CCN(c3nc4c(nc3-c3cnn(C)c3)CN(C(C)=O)CC4)CC2)c1F` [Compound 318, 1-(2-{4-[(2-fluoro-3-methoxyphenyl)methyl]piperazin-1-yl}-3-(1-methyl-1H-pyrazol-4-yl)-5H,6H,7H,8H-pyrido[3,4-b]pyrazin-6-yl)ethan-1-one], the 50% inhibitory concentration (IC50) in assay [1] (procedure of Example 24) is at least 30000 nM; in assay [2] (procedure of Example 24) it was 1000 to 30000 nM.

Consider `CC(C)(O)C(C)(O)c1cc2nc(N3CCC(Oc4ccc(F)cc4F)CC3)c(-c3cnn(C4CC4)c3)nc2cn1` (stereo not shown) [Compound 632, 2-{3-(1-cyclopropyl-4-pyrazolyl)-2-[4-(2,4-difluorophenoxy)-1-piperidyl]-1,4,6-triaza-7-naphthyl}-3-methyl-2,3-butanediol], for which the half-maximal inhibitory concentration (IC50) in assay [1] (procedure of Example 24) fell in the range of 100 to 1000 nM; in assay [2] (procedure of Example 24), 1000 to 30000 nM.

Take `CC(=O)N1CCc2nc(N3CCC(C(=O)N(C)Cc4ccc(F)cc4F)C3)c(-c3cnn(C)c3)nc2C1` (stereo not shown) [Compound 387, 1-[6-acetyl-3-(1-methyl-1H-pyrazol-4-yl)-5H,6H,7H,8H-pyrido[3,4-b]pyrazin-2-yl]-N-[(2,4-difluorophenyl)methyl]-N-methylpyrrolidine-3-carboxamide]: the 50% inhibitory concentration (IC50) in assay [1] (setting [6]) and in assay [2] (setting [7]) was 1000 to 30000 nM each time.

Consider `CC(C)(O)[C@@](C)(O)c1cc2nc(-c3cnn(C4CC4)c3)c(N3CCN(Cc4ccc(F)cc4F)CC3)nc2cn1` (single isomer, unassigned) [Compound 682], for which the 50% inhibitory concentration (IC50) in assay [1] (procedure of Example 24) was below 100 nM; in assay [2] (procedure of Example 24), 1000 to 30000 nM.

In the case of `CCn1cc(-c2nc3cnc(C(O)C(C)(C)O)cc3nc2N2CCC(Oc3ccc(F)cc3F)CC2)cn1` (stereo not shown) [Compound 307, 1-{2-[4-(2,4-difluorophenoxy)piperidin-1-yl]-3-(1-ethyl-1H-pyrazol-4-yl)pyrido[3,4-b]pyrazin-7-yl}-2-methylpropane-1,2-diol], the half-maximal inhibitory concentration (IC50) in assay [1] (procedure of Example 24) was 100 to 1000 nM; in assay [2] (procedure of Example 24), 1000 to 30000 nM.

For `CC(=O)N1CCc2nc(N3CCN(Cc4ccc(Cl)cc4F)CC3)c(-c3ccc(F)c(N)n3)nc2C1` [Compound 610, 1-[3-(6-amino-5-fluoro-2-pyridyl)-2-{4-[(4-chloro-2-fluorophenyl)methyl]-1-piperazinyl}-5,6,7,8-tetrahydro-1,4,6-triaza-6-naphthyl]-1-ethanone], the IC50 in assay [1] (procedure of Example 24) was below 100 nM; in assay [2] (procedure of Example 24), 1000 to 30000 nM.

For the molecule `CC(=O)N1CCc2nc(N3CCN(Cc4cc(C#N)ccc4F)CC3)c(-c3cnn(C)c3)nc2C1` [Compound 357, 3-({4-[6-acetyl-3-(1-methyl-1H-pyrazol-4-yl)-5H,6H,7H,8H-pyrido[3,4-b]pyrazin-2-yl]piperazin-1-yl}methyl)-4-fluorobenzonitrile], the half-maximal inhibitory concentration (IC50) in assay [1] (procedure of Example 24) and in assay [2] (procedure of Example 24) was 1000 to 30000 nM throughout.

In the case of `CC(=O)N1CCc2nc(N3CCN(Cc4cccc(F)c4)CC3)c(-c3cnn(C)c3)nc2C1` [Compound 256, 1-(2-{4-[(3-fluorophenyl)methyl]piperazin-1-yl}-3-(1-methyl-1H-pyrazol-4-yl)-5H,6H,7H,8H-pyrido[3,4-b]pyrazin-6-yl)ethan-1-one], the half-maximal inhibitory concentration (IC50) in assay [1] (setting [6]) and in assay [2] (setting [7]) was 1000 to 30000 nM throughout.

As for `CC(=O)N1CCc2nc(N3CCC(Oc4ccc(F)cc4F)CC3)c(-c3cccc(C(=O)N(C)C)n3)nc2C1` [Compound 131, 6-(6-acetyl-2-(4-(2,4-difluorophenoxy)piperidin-1-yl)-5,6,7,8-tetrahydropyrido[3,4-b]pyrazin-3-yl)-N,N-dimethylpicolinamide], the IC50 in assay [1] (setting [6]) and in assay [2] (setting [7]) was 1000 to 30000 nM each time.

In the case of `CC(C)(O)COc1cc2nc(-c3cnn(CF)c3)c(N3CCN(Cc4ccc(F)cc4F)CC3)nc2cn1` [Compound 798, 1-(3-{4-[(2,4-difluorophenyl)methyl]-1-piperazinyl}-2-[1-(fluoromethyl)-4-pyrazolyl]-1,4,6-triaza-7-naphthyloxy)-2-methyl-2-propanol], the IC50 in assay [1] (procedure of Example 24) fell in the range of 100 to 1000 nM; in assay [2] (procedure of Example 24) it was 1000 to 30000 nM.

With `Cn1cc(-c2nc3cc([C@](C)(O)C(C)(C)O)ncc3nc2N2CCN(Cc3ccc(F)cc3F)CC2)cn1` (single isomer, unassigned) [Compound 773], the IC50 in assay [1] (procedure of Example 24) and in assay [2] (procedure of Example 24) was 100 to 1000 nM in each case.

`CC(=O)N1CCc2nc(N3CCN(C(=O)c4ccc(F)cc4F)CC3)c(-c3cnn(C)c3)nc2C1` [Compound 630, 1-{2-[4-(2,4-difluorobenzoyl)-1-piperazinyl]-3-(1-methyl-4-pyrazolyl)-5,6,7,8-tetrahydro-1,4,6-triaza-6-naphthyl}-1-ethanone]: the IC50 in assay [1] (procedure of Example 24) is 1000 to 30000 nM; in assay [2] (procedure of Example 24) it was at least 30000 nM.

`Cn1cc(-c2nc3cnc(C(O)CC#N)cc3nc2N2CCC(Oc3ccc(F)cc3F)CC2)cn1` (stereo not shown) [Compound 402, 3-(2-(4-(2,4-difluorophenoxy)piperidin-1-yl)-3-(1-methyl-1H-pyrazol-4-yl)pyrido[3,4-b]pyrazin-7-yl)-3-hydroxypropanenitrile]: the half-inhibitory concentration (IC50) in assay [1] (setting [6]) and in assay [2] (setting [7]) was 1000 to 30000 nM in each case.

Regarding `CC(=O)N1CCc2nc(N3CCC(Oc4ccc(F)cc4F)CC3)c(-c3cncc(C)n3)nc2C1` [Compound 444, 1-{2-[4-(2,4-difluorophenoxy)piperidin-1-yl]-3-(6-methylpyrazin-2-yl)-5H,6H,7H,8H-pyrido[3,4-b]pyrazin-6-yl}ethan-1-one], the IC50 in assay [1] (setting [6]) and in assay [2] (setting [7]) was 1000 to 30000 nM in each case.

As for `CCn1cc(-c2nc3c(nc2N2CCC(Oc4ccc(F)cc4F)CC2)CCN(C(=O)C2CCCN2)C3)cn1` (stereo not shown) [Compound 291, 4-(2,4-difluorophenoxy)-1-[3-(1-ethyl-1H-pyrazol-4-yl)-6-(pyrrolidine-2-carbonyl)-5H,6H,7H,8H-pyrido[3,4-b]pyrazin-2-yl]piperidine], the half-inhibitory concentration (IC50) was below 100 nM in assay [1] (procedure of Example 24) and 1000 to 30000 nM in assay [2] (procedure of Example 24).

Regarding `COc1cccc(-c2nc3c(nc2N2CCC(Oc4ccc(F)cc4F)CC2)CCN(S(C)(=O)=O)C3)n1` [Compound 59, 2-(4-(2,4-difluorophenoxy)piperidin-1-yl)-3-(6-methoxypyridin-2-yl)-6-(methylsulfonyl)-5,6,7,8-tetrahydropyrido[3,4-b]pyrazine], the half-maximal inhibitory concentration (IC50) in assay [1] (setting [6]) and in assay [2] (setting [7]) was 1000 to 30000 nM throughout.
